The text below walks through data of patent US20080176934A1, “Use Of Diosmetin Compounds In The Treatment And Prevention Of Thrombotic Pathologies” (Les Laboratoires Servier, priority 2005, published 2008).

In one assay the test system is PAI-1 promoter. In words: PAI-1 promoter activity (PGL3/PAI-1 luciferase reporter) in transfected HepG2 cells. The class given is cell-based, human. The settings on record: for Activity in cpm (PAI-1 promoter activity): 10 μM, 24 h, n=6; for inhibition at 10 µM: Homo sapiens, HepG2, 24 h, read-out: % inhibition/control (PAI-1 promoter activity). How it is done:
The study is carried out on a line of human hepatocytes HepG2 (ATCC, no. HB-8065). The cells are cultured in a medium of MEM (minimal essential medium) with glutamax-1 (Gibco™) containing 10% FCS (foetal calf serum), 1% non-essential amino acids and 1% sodium pyruvate and supplemented with penicillin and streptomycin.
A fragment of 2.5 kb, corresponding to the PAI-1 promoter, extending from the nucleotides at positions −2442 to +136, was amplified by PCR and sub-cloned (Lopez et al., 2000, Atherosclerosis, 152, 359-366). In a final reaction volume of 50 μl, 2.5 units of Platinum® TaqDNA Polymerase High Fidelity (Invitrogen) are placed in the presence of 300 ng of human genomic DNA (Clontech), 300 μM of dNTP (deoxynucleotide triphosphate) (Clontech), 300 nM of primers in a medium containing the buffer specific to the enzyme, supplemented by 1.5 mM of MgCl2 and different concentrations of PCRx Enhancer System (Invitrogen), which facilitates amplification of the especially difficult sequences (0 to 4×). The set of primers used (Chen et al. Differential mechanisms of PAI-1 gene activation by transforming growth factor beta and tumor necrosis factor alpha in endothelial cells, 2001, Thrmb Haemost, 86, 1563-72) is as follows:
Ligation of the pGL3-Basic plasmid vector and the insert corresponding to the PAI-1 promoter was carried out by means of T4 DNA Ligase (LigaFast™ Rapid DNA Ligation System from Promega). Conventionally, during ligation, there is used an excess of insert which is equivalent to three times the amount of vector. Furthermore, because this insert is half as long as the vector (2.5 kb as opposed to 4.8 kb), maintaining stoichiometric equilibrium requires twice the mass of […]. 37.5 ng of insert and 25 ng of pGL3-Basic vector were therefore reacted in the presence of 3 units of T4 ligase, at ambient temperature.
The PGL3/PAI-1 plasmid is transfected into HepG2 cells. Transfection is carried out in plates having cells at 50% confluence, depositing Lipofectin® (1 mg/ml) and 1.5 μg of PGL3/PAI-1 plasmid in each of the wells. The Lipofectin® is activated for 30 min in an OPTI-MEM medium (GIBCO™) and then brought into contact for 15 min with the plasmids previously diluted with the medium. The cells are incubated for 6 hours at 37° C. in an atmosphere containing 5% CO2 and 95% […]. The transfection medium is withdrawn and replaced overnight by an enriched culture medium in order to stabilise the cells. Expression of the reporter genes is induced over 24 h in an MEM medium without serum. The cells are scratched and lysed in a lysis buffer (Dual-Luciferase® kit, Promega) and then held at −20° C.
The induction phase is 24 h for the HepG2 cells in the presence of TGFβ1 (1 ng/ml). During that induction phase, a PAI-1 expression inhibitor may be added 4 h before TGFβ1 and kept in contact with the cells until the end of the 24 h of the induction phase.
The PAI-1 promoter activity is determined by quantification of the luciferase activity produced (Dual-Luciferase® kit, Promega). To each well there is added a solution of luciferin, the substrate of firefly luciferase. […] The plate is incubated for 10 min in the dark because the luciferase activity is sensitive to light, and then a luminometer reading is started in order to quantify the photons emitted (Wallac, Perkin Elmer), the result obtained being the average cpm (counts per minute) over a period of 5 s.
6,8-Diallyl-5,7-dihydroxy-2-(2-allyl-3-hydroxy-4-methoxyphenyl)-4H-1-benzopyran-4-one, arbitrarily referred to as compound A, and T686 of formula 3(E)-benzylidene-4(E)-(3,4,5-trimethoxybenzylidene)pyrrolidine-2,5-dione (PAI-1 expression inhibitor of reference, from Tanabe) were tested at a concentration of 10 μM on HepG2 cells in the basal state and after induction with TGFβ1. The PAI-1 promoter activity is measured in the control condition and in the presence of inhibitors, in the basal and induced states.
On the technique in general: A reporter such as luciferase makes a cellular process visible.

The test system of assay [1] is arterial thrombosis induced by FeCl3 on the abdominal aorta. In words: Model of arterial thrombosis induced by FeCl3 on the abdominal aorta in the rat. The class given is in vivo. Particulars: male CD rats, 30 mg/kg/day per os for 5 days, FeCl3 50% on aorta. How it is done: The studies were carried out on male CD rats weighing between 250 and 400 g (Charles River Laboratories). The experimental protocol carried out on groups of from 6 to 8 rats comprises a group for each compound under test to be compared with a control group in which the rats are treated with a solvent. These rats are used to study the effects of an antithrombotic in a model of arterial thrombosis induced by FeCl3 on the abdominal aorta (Tanaka et al. Z-335, a new thromboxane A2 receptor antagonist, prevents arterial thrombosis induced by ferric chloride in rats, 2000, Eur. J. Pharmacol., 401, 413-418).
The rats are treated with the compound under test, for example 6,8-diallyl-5,7-dihydroxy-2-(2-allyl-3-hydroxy-4-methoxyphenyl)-4H-1-benzopyran-4-one (30 mg/kg/day) by administration per os by gavage for 5 days before arterial thrombosis is induced in those rats. The rats are anaesthetised using pentobarbital 50 mg/kg by intraperitoneal administration and their abdominal aortas are exposed following laparotomy. […]
The activity of 6,8-diallyl-5,7-dihydroxy-2-(2-allyl-3-hydroxy-4-methoxyphenyl)-4H-1-benzopyran-4-one is evaluated as a function of the weight of the clot removed from the aorta, that activity being greater for a lesser weight of clot.

Where [2] appears, read: HepG2, induced by TGFβ1 (1 ng/ml).

Like-named read-outs stand apart in the source and are kept apart here.

Consider `C=CCc1c(-c2cc(=O)c3c(O)c(CC=C)c(O)c(CC=C)c3o2)ccc(OC)c1O` [Compound A, 6,8-diallyl-5,7-dihydroxy-2-(2-allyl-3-hydroxy-4-methoxyphenyl)-4H-1-benzopyran-4-one], for which, in the assay with PAI-1 promoter (HepG2, basal condition), the “Activity in cpm (PAI-1 promoter activity)” value (from here on “Activity in cpm”) came out at 445 ± 121 cpm and the inhibition at 10 µM came out at 69%. For the same compound, in the assay on PAI-1 promoter (setting [2]), the “Activity in cpm” value is listed as 765 ± 138 cpm and the inhibition at 10 µM was determined as 78%. The “reduction in the weight of the clot with respect to the control” value in assay [1] is reported as ~30%. For the same compound, the Weight of clot in assay [1] (n=6, control 10.6 ± 0.7 mg) was determined as 7.6 ± 0.4 mg.

Consider `COc1cc(/C=C2/C(=O)NC(=O)/C2=C/c2ccccc2)cc(OC)c1OC` [Compound T686, 3(E)-benzylidene-4(E)-(3,4,5-trimethoxybenzylidene)pyrrolidine-2,5-dione, reference compound], for which, in the assay with PAI-1 promoter (HepG2, basal condition), the “Activity in cpm” value is given as 473 ± 143 cpm and the inhibition at 10 µM amounted to 67%. In the assay with PAI-1 promoter (setting [2]), the “Activity in cpm” value is recorded as 1641 ± 173 cpm and the inhibition at 10 µM came out at 52%.
